# Entries after “also recorded” stand apart in the source; their conditions may differ. Where a SMILES comes first, the peptide text is derived from it.
# Columns and labels:
# SH-SY5Y cells = assay: DNA methylation by MBD-seq (differentially methylated transcripts); type: cell-based, human; details: cells treated 4 hours with 1 μM BCM-7; FDR<0.1, p<0.05
# Description: Global DNA methylation levels induced by BCM-7 were investigated using methyl-CpG binding domain (MBD) protein-enriched genome sequencing (MBD-seq) as described previously (Trivedi M., et al., Mol. Pharm. 2014), whereas mRNA translation microarray data was obtained using Agilent V3 microarray chip, from non-treated control SH-SY5Y cells and cells treated for 4 hours with 1 μM BCM-7.
# Genomic DNA was extracted from samples with the Easy DNA kit (Invitrogen K1800-01) using the appropriate protocol for cell lines. Fragmentation was performed on Covaris S2 with the following settings: duty cycle 10%, intensity 5, 200 cycles per burst during 200 sec. Fragments were obtained having an average length of 200 bp. The power mode is frequency sweeping, temperature 6-8° C., water level 12. A maximum of 5 μg was loaded in 130 μl Tris-EDTA in a microtube with AFA intensifier. For samples with less DNA input (down to 500 ng) the DNA was diluted 1:5 in TrisEDTA. DNA with an input from 5-3 μg was analysed on the Agilent 2100 using a DNA 1000 chip. DNA with an input lower than 3 μg was concentrated in a rotary evaporator to 25 μl and the fragment distribution was checked on a high sensitivity DNA chip. Methylated DNA was captured using the MethylCap kit (Diagenode, Belgium). The yield was typically between 0.5 and 8 ng of total captured DNA. Fragments were subsequently sequenced using an Illumina Genome Analyzer II. The concentrations of fragmented and captured DNA were determined on a Fluostar Optima plate reader with the Quant-iT PicoGreen dsDNA Assay Kit (Invitrogen P7589) at 480/520 nm.
# To prepare the DNA library, a DNA Sample Prep Master Mix Set 1 (NEB E6040) was used in combination with a Multiplexing Sample Preparation Oligo Kit (96 samples, Illumina PE-400-1001). The entire fragmented DNA was utilised and followed the NEB protocols, using the multiplexing sequencing adapters provided in the Multiplexing Sample Preparation Oligo Kit. Size selection of the library was carried out on a 2% agarose gel (Low Range Ultra Agarose Biorad 161-3107). […] A fragment of 300 bps +/−50 bps was excised and eluted on a Qiagen Gel Extraction Kit column (Qiagen 28704) and eluted in 23 μl EB.
# The Illumina library amplification index protocol was used with the following alterations: 22 μl DNA was used and performed 21 cycles run. The sample was purified on a Qiaquick PCR Purification column (Qiagen 28101) and eluted in 50 μl EB, 1:5 diluted, and concentrated in a rotary evaporator to 10 μl. 1 μl was applied to a Agilent 2100 HS DNA chip and the concentration was determined by smear analysis on the Agilent 2100. The samples were diluted to 10 nM. After denaturation with NaOH the samples were diluted to […]. The Paired-End flow cell was prepared according to the Cluster Station User Guide. […]
# SH-SY5Y neuronal cells = assay: Intracellular cysteine, GSH and SAM/SAH levels by HPLC with electrochemical detection; type: cell-based, human
# Description: Media was aspirated and the cells were washed twice with 1 mL of ice cold HBSS. HBSS was aspirated and 0.6 mL ice cold dH2O was added to the cells. The cells were scraped from the flask/dish and suspended in dH2O. […] The remaining lysate was added to a microcentrifuge tube and an equal volume of 0.4 N perchloric acid was added, followed by incubation on ice for 5 min. Samples were centrifuged at 5,000×g and the supernatant transferred to new microcentrifuge tubes.
# The separation of redox and methylation pathway metabolites was accomplished using an Agilent Eclipse XDB-C8 analytical column (3×150 mm; 3.5 μm) and an Agilent Eclipse XDB-C8 (4.6×12.5 mm; 5 μm) guard column. […] The flow rate was initially set at 0.6 mL/min and a step gradient was used: 0-9 min 0% B, 9-19 min 50% B, 19-30 min 50% B. The column was then equilibrated with 5% B for 12 min prior to the next run. Temperature was maintained at 27° C. […] Sample concentrations were determined from the peak areas of metabolites using standard calibration curves and ESA-supplied HPLC software. Sample concentrations were normalised against protein content. In some cases samples were diluted in mobile phase as needed or up to 50 μl of sample was injected to assure that thiol levels were within the range of the standard curve.
# [1] = tested on: Caco-2 Gut epithelial cells; details: read-out: IC50, inhibition of cysteine uptake; GI epithelial cells (FIG. 4)
# Description: (§1) Pre-treatment in cells was performed for different time points for 30 min, 4, 24 and 48 h as described previously (Trivedi M., et al.; Mol. Pharm., 2014). SH-SY5Y human neuronal cells and Caco-2 Gut epithelial cells were plated in six-well plates and were pretreated with drugs and incubated for various times prior to measuring uptake. Media were aspirated and cells were washed with 600 μL of HBSS at 37° C. Non-radioactive HBSS was aspirated, replaced with 600 μL of 37° C. HBSS containing [^35S]-cysteine (1 μCl/1 mL), 10 μM unlabelled cysteine and 100 μM DTT, and the cells were incubated for 5 min. The [^35S]-cysteine/HBSS mixture was aspirated and treatment was terminated by two washes with ice-cold HBSS. Cells were then lysed with 600 μL of dH2O, scraped, collected in 1.5 mL microcentrifuge tubes, and sonicated for 10 s. 100 μL of each sample was aliquoted for protein assay. 200 μL of each sample (in triplicate) was aliquoted into scintillation vials with 4 mL of scintillation fluid, vortexed, and counted for radioactivity (normalised against protein content). […] The symbol * used in these figures indicates a statistically significant difference (p<0.05) compared against the untreated control, and the symbol # indicates a statistically significant difference (p<0.005) compared against the untreated control.
# [2] = tested on: SH-SY5Y human neuronal cells
# Description: as §1
smiles,measurement,setting,value
"CC[C@H](C)[C@H](NC(=O)[C@@H]1CCCN1C(=O)CNC(=O)[C@@H]1CCCN1C(=O)[C@H](Cc1ccccc1)NC(=O)[C@@H]1CCCN1C(=O)[C@@H](N)Cc1ccc(O)cc1)C(=O)O [BCM-7, beta-casomorphin-7] (H-YPFPGPI-OH; N-terminus and C-terminus assumed)",Differentially methylated transcripts: Galactose metabolism,SH-SY5Y cells,GALK2 and GALR2 and GALT and GALR1 and CHST1 and NPY and PYY and GKN1
same,Differentially methylated transcripts: Gastric Acid secretion,SH-SY5Y cells,SCTR and OXTR and VIPR1 and SST and PPARGC1A and PGC
same,Differentially methylated transcripts: Lactose Biosynthetic pathway,SH-SY5Y cells,LGALS12; also recorded: B4GALT1; also recorded: B4GALT2
same,Differentially methylated transcripts: Lactose metabolism,SH-SY5Y cells,LCT
same,Cysteine and glutathione (GSH) levels,"SH-SY5Y neuronal cells; 30 min, 4 h, 24 h",time-dependent decreases
same,Methylation capacity (SAM/SAH ratio),SH-SY5Y neuronal cells; different time points (FIG. 7),affected
same,IC50,[1],15.9 nM
same,Receptor mediating the effect on cysteine uptake,"[2]; in presence of CTAP (selective μ-antagonist) or naltrindole (delta antagonist), FIG. 6",μ-opioid receptor mediated
same,Time course of inhibition of cysteine uptake,"[2]; neuronal cells and GI epithelial cells (FIG. 5), 30 min to 48 h exposure",fully developed after 30 minutes and was sustained through 48 hours
same,IC50,"[2]; read-out: IC50, inhibition of cysteine uptake, neuronal cells (FIG. 4)",1.31 nM

# Source: patent publication US20220175882A1, “BETA-CASEIN A2 AND REDUCING OR […] OF LACTOSE INTOLERANCE” (THE A2 MILK COMPANY LIMITED, priority 2013, published 2022)
